Results published in article PMC10317875, “PET imaging of PARP expression using ^68Ga-labelled inhibitors” (European Journal of Nuclear Medicine and Molecular Imaging, 2023).

Tests used:
[1] = Partition coefficient log P (octanol/ultrapure water); assay type: physicochemical; conditions: ultrapure water/octanol = 1/1
Description: Log P: Generally, approximately 74–185 kBq of the ^68Ga-labelled radiotracer was combined with a solvent mixture (2 mL, ultrapure water/octanol = 1/1). After 5 min of agitation in a vortex mixer, the aqueous and nonaqueous phases were separated by centrifugation at 15000 g. The radioactivity of each sampling layer (100 μL) was measured using a γ-counter. The trial was conducted five times.

[2] = Plasma protein binding (ultrafiltration); assay type: in vitro ADME; conditions: mouse plasma
Description: To evaluate the plasma protein binding of the ^68Ga-labelled radiotracers, mouse blood from the heart was centrifuged at 4000 g for 5 min. The upper layer of blood was transferred to an EP tube and stored overnight in a refrigerator at 4 °C.
One hundred microliters of the ^68Ga-labelled radiotracer solution (0.74–1.48 MBq) was incubated with 100 μL of the above plasma. After 0.5, 1, and 2 h of incubation, the mixture was centrifuged at 15000 g for 10 min in a 30 K ultrafiltration tube. The radioactivity of the membrane and eluate was detected with a γ-counter. The radioactivity from the membrane, representing the tracer bound to plasma proteins, was estimated as a proportion of the total radioactivity of the sample. The experiment was repeated in triplicate.

SK-OV-3 and A549 cells = assay: Cell uptake of radiotracers in SK-OV-3 and A549 cells; assay type: cell-based; conditions: 2 h incubation at 37 °C
Description: SK-OV-3 and A549 cells were seeded in 6-well plates (500 × 10^3/well) for 24 h. Then, the cells were incubated separately with the three ^68Ga-labelled radiotracers (740 kBq/1 mL in each well) at 37 °C. To eliminate unbound ^68Ga-labelled radiotracers, the cells were rinsed three times with PBS (0.5 mL) 2 h after incubation. Cell suspensions were produced after adding pancreatin (0.5–0.8 mL). Finally, a γ-counter was used to measure the radioactivity. The radioactivity data are presented as CPM (counts per minute) with time-decay correction. Three replicate experiments were conducted.

[3] = Partition coefficient log D7.4 (octanol/PBS); assay type: physicochemical; conditions: PBS (pH = 7.4)/octanol = 1/1
Description: Log D7.4: Similarly, approximately 74–185 kBq of the ^68Ga-labelled radiotracer was combined with a solvent mixture (2 mL, PBS (pH = 7.4)/octanol = 1/1). The partition coefficient experiment was repeated, as mentioned previously.

[4] = Pharmacokinetics (blood clearance) in normal mice; assay type: in vivo; conditions: tail vein injection, blood radioactivity
Description: The pharmacokinetic parameters of the three ^68Ga-labelled radiotracers were evaluated in normal mice. The three ^68Ga-labelled radiotracers were injected into mice via the tail veins at a dose of 1.48–2.96 MBq/mouse in approximately 200 μL. Blood samples were obtained via the tail vein using tared capillary tubes at 1, 3, 5, 10, 15, 30, 60, 120, and 180 min after radiotracer injection. The blood volume drawn was approximately 0.5–0.8 dispense capillary volumes at each time point. Dispense capillary tube was from Shanghai Great Wall Scientific Instruments Store (size: 0.5 × 100; diameter: 0.5 mm; length: 100 mm). The radioactivity was determined with a γ-counter and decay-corrected to the injection time. All samples were weighed. The radioactive CPM (counts per minute) by dividing by the mass of blood in the capillary are presented as %ID/g. Finally, the pharmacokinetic parameters were analysed by GraphPad Prism 9.0.

SK-OV-3 models [5] = assay: MicroPET/CT imaging of SK-OV-3 models; assay type: in vivo, BALB/c nude mice
Description: (§1) Female BALB/c nude mice (6–8 weeks old) were utilized in all tumor-bearing mouse experiments. Twelve BALB/c nude mice were subcutaneously injected with SK-OV-3 cells (1 × 10^6) into the right armpit. The mice were used for investigation after the tumor diameter reached approximately 0.5–1.1 cm.
Six SK-OV-3 models were separated into two groups (^68Ga-labelled radiotracers and blocked groups). The ^68Ga-labelled radiotracers (2.96–5.55 MBq in 200 μL of saline) were administered via tail vein injection. Approximately 5 min before PET acquisition, the mice were anaesthetized by inhalation of a mixture of isoflurane and positioned in the scanner. The PET data for each mouse were acquired at 0.5, 1, and 2 h after injection. In the blocking studies, ^68 Ga-DOTA-Olaparib was injected with a 500-fold excess of Olaparib (562.68 μg) in 200 μL of a solution consisting of 75% saline and 25% DMSO (dimethyl sulfoxide). PET acquisition was performed at 1 h postinjection. The target tissue’s radioactivity content was measured, and the tissue-associated activity was expressed as %ID/g.

[6] = Ex vivo biodistribution in normal mice; conditions: 5-180 min after injection
Description: Normal mice (6–8 weeks old, n = 5) were utilized in the biodistribution experiments. ^68Ga-DOTA-Olaparib (0.74–2.96 MBq of 200 μL of saline) was administered via the lateral tail vein. The medication was allowed to circulate for 5, 15, 30, 60, 120, and 180 min before the mice were sacrificed. The radioactivity in the target tissues (blood, muscle, bone, liver, spleen, kidney, heart, lung, bladder, brain, small intestine, and stomach) was measured using a γ-counter. The organs were weighed, and the γ-counter activity readings were decay-corrected to the injection time. The corresponding tissue activity was then assessed using GraphPad Prism 9.0, and the data are presented as %ID/g using the following formula: [(activity in the target organ/target organ quality)/injected dose] * 100%.

A549 models = assay: Ex vivo biodistribution in A549 models; parameters: species or system mice; conditions: 1 h
Description: (§2) To further compare and validate the specific uptake of ^68Ga-DOTA-Olaparib in different tumor models, biodistribution experiments were conducted with A549 models (10–12 weeks old, n = 3). ^68Ga-DOTA-Olaparib (1.22–5.59 MBq of ^68Ga-DOTA-Olaparib in 200 μL of saline) was administered via the lateral tail vein. After allowing the medication to circulate for varying amounts of time (0.5, 1, and 2 h), three mice were sacrificed. The tissue radioactivity (tumor, blood, muscle, bone, liver, spleen, kidney, heart, lung, bladder, brain, small intestine, and stomach) was measured using a γ-counter. The organs were weighed, and the γ-counter activity readings were decay-corrected to the injection time. Finally, the associated tissue activity was calculated by GraphPad Prism 9.0, and the data are expressed as %ID/g.

SK-OV-3 models [7] = assay: Ex vivo biodistribution in SK-OV-3 models; parameters: species or system BALB/c nude mice
Description: as §1
as §2, with “Biodistribution” for “To further compare and validate the specific uptake of ^68Ga-DOTA-Olaparib in different tumor models, biodistribution”, “SK-OV-3” for “A549”, “(1.85–5.55” for “(1.22–5.59”
To verify specific tumor accumulation, ^68Ga-DOTA-Olaparib was administered with a 500-fold excess of Olaparib (530.94 μg) in 200 μL of a solution containing 75% saline and 25% DMSO via the lateral tail vein. After 1 h, mice (n = 3) were sacrificed to collect the tissues of interest. The associated tissue activity was measured as described above.

PARP-1 in SK-OV-3 cells = assay: In vitro cell localization, FL-Olaparib confocal fluorescence with competition; conditions: FL-Olaparib 250 nM, presaturation with 1000-fold molar excess of competitor
Description: SK-OV-3 cells were plated on a confocal petri dish (diameter = 60 mm) at 500 × 10^3 cells/well density. […] The confocal dish was protected from light by wrapping it in tin foil. Three PBS washes (10 min each) were performed on each cell type. Paraformaldehyde was added for cell fixation, and DAPI was added for nuclear staining. The cells were rinsed twice with medium and once with PBS (5 min per wash) and observed using a confocal microscope (LEICA TCS SP5 II).
After 1 h of incubation, to determine the uptake by SK-OV-3 cells, assays were carried out and repeated as stated above.

[8] = target: T1, PARP-1 protein (human, Recombinant (His Tag)) (Homo sapiens, UniProt P09874); assay: Surface plasmon resonance (SPR) binding assay; conditions: SPR imaging
T1 construct: His tag; purchased Sino Biological 11,040-H08B
Description: Furthermore, the compound Olaparib was used as a reference for affinity. The surface plasmon resonance binding assays were conducted according to the previous protocol.

| Compound | log Poctanol/water [1] | plasma protein binding ([2]; 0.5 h) | plasma protein binding ([2]; 1 h) | plasma protein binding ([2]; 2 h) | SK-OV-3/A549 uptake ratio (SK-OV-3 and A549 cells) | log Doctanol/PBS [3] | clear-phase half-life (t1/2β) [4] | distribution-phase half-life (t1/2α) [4] | tumor uptake (PET/CT) (SK-OV-3 models [5]; 0.5 h after injection) | tumor uptake (PET/CT) (SK-OV-3 models [5]; 1 h after injection) | tumor uptake (PET/CT) (SK-OV-3 models [5]; 2 h after injection) | also measured |
| --- | --- | --- | --- | --- | --- | --- | --- | --- | --- | --- | --- | --- |
| O=C([O-])CN1CCN(CC(=O)O)CCN(CC(=O)[O-])CCN(CC(=O)NCC(=O)NCC(=O)NCC(=O)N2CCN(C(=O)c3cc(Cc4n[nH]c(=O)c5ccccc45)ccc3F)CC2)CC1.[68Ga+3] [68Ga-DOTA-(Gly)3-Olaparib] | -1.62 ± 0.075 | 39.32 ± 1.89% | 43.08 ± 7.20% | 43.56 ± 5.24% | 1.63 ± 0.13 | -1.75 ± 0.11 | 23.19 min | 0.40 min | 0.96 ± 0.13 %ID/g | 0.57 ± 0.068 %ID/g | 0.91 ± 0.11 %ID/g |  |
| O=C([O-])CN1CCN(CC(=O)O)CCN(CC(=O)[O-])CCN(CC(=O)NCCCC(=O)N2CCN(C(=O)c3cc(Cc4n[nH]c(=O)c5ccccc45)ccc3F)CC2)CC1.[68Ga+3] [68Ga-DOTA-GABA-Olaparib] | -2.16 ± 0.12 | 59.62 ± 2.40% | 83.84 ± 1.42% | 58.13 ± 6.63% | 2.43 ± 0.45 | -2.49 ± 0.15 | 47.69 min | 0.31 min | 0.96 ± 0.14 %ID/g | 0.56 ± 0.12 %ID/g | 0.98 ± 0.53 %ID/g |  |
| O=C([O-])CN1CCN(CC(=O)O)CCN(CC(=O)[O-])CCN(CC(=O)N2CCN(C(=O)c3cc(Cc4n[nH]c(=O)c5ccccc45)ccc3F)CC2)CC1.[68Ga+3] [68Ga-DOTA-Olaparib] | -2.33 ± 0.028 | 20.59 ± 1.23% | 32.85 ± 4.11% | 24.04 ± 0.80% | 1.47 ± 0.019 | -2.56 ± 0.026 | 22.82 min | 1.97 min |  | ~2.37 ± 0.37 %ID/g | ~2.27 ± 0.32 %ID/g | order of clearance from the body [6]: kidney-bladder-urine; tumor uptake (ex vivo biodistribution) (A549 models): 0.43 ± 0.10 %ID/g; tumor/intestine ratio (SK-OV-3 models [7]; 1 h after administration): 2.05 ± 0.072; tumor/stomach ratio (SK-OV-3 models [7]; 1 h after administration): 2.97 ± 0.73; T/M ratio (ex vivo biodistribution) (SK-OV-3 models [7]; 2 h): 12.64 ± 1.32; tumor-to-bone ratio (ex vivo biodistribution) (SK-OV-3 models [7]; 2 h): 3.85 ± 0.68; tumor-to-brain ratio (ex vivo biodistribution) (SK-OV-3 models [7]; 2 h): 15.63 ± 1.58; bladder accumulation (SK-OV-3 models [7]; SK-OV-3 models, 0.5 h): 5.80 ± 1.47 %ID/g; kidneys accumulation (SK-OV-3 models [7]; SK-OV-3 models, 0.5 h): 3.11 ± 0.29 %ID/g; bladder accumulation (SK-OV-3 models [7]; SK-OV-3 models, 1 h): 2.57 ± 0.72 %ID/g; kidneys accumulation (SK-OV-3 models [7]; SK-OV-3 models, 1 h): 4.24 ± 0.22 %ID/g; tumor radioactivity (ex vivo biodistribution), blocked (SK-OV-3 models [7]; SK-OV-3 models, 1 h, 500-fold excess of Olaparib): 0.25 ± 0.027 %ID/g; tumor radioactivity (ex vivo biodistribution) (SK-OV-3 models [7]; SK-OV-3 models, 1 h postinjection): 1.26 ± 0.17 %ID/g; bladder accumulation (SK-OV-3 models [7]; SK-OV-3 models, 2 h): 0.064 ± 0.025 %ID/g; kidneys accumulation (SK-OV-3 models [7]; SK-OV-3 models, 2 h): 2.51 ± 0.33 %ID/g; T/M (tumor-to-muscle) ratio (PET/CT) (SK-OV-3 models [5]; 0.5 h): approximately 3.54 ± 0.74; T/M (tumor-to-muscle) ratio (PET/CT), blocked (SK-OV-3 models [5]; 1 h, blocked with a 500-fold excess of Olaparib): 1.79 ± 0.26; T/M (tumor-to-muscle) ratio (PET/CT) (SK-OV-3 models [5]; 1 h, unblocked): ~4.07 ± 0.59; T/M (tumor-to-muscle) ratio (PET/CT) (SK-OV-3 models [5]; 2 h): ~7.31 ± 0.51 |
| O=C(O)CN1CCN(CC(=O)O)CCN(CC(=O)N2CCN(C(=O)c3cc(Cc4n[nH]c(=O)c5ccccc45)ccc3F)CC2)CCN(CC(=O)O)CC1 [DOTA-Olaparib] |  |  |  |  |  |  |  |  |  |  |  | effect on FL-Olaparib fluorescence signals (PARP-1 in SK-OV-3 cells): substantial reduction in fluorescence signals; Kd [8]: 14.5 nM |
